Measurements as given in EPA's ToxValDB 9.5 (doi:10.2903/j.efsa.2010.1692).

Experiments:
Pimephales promelas = settings: chronic/long-term; duration: 32 days
Lepomis macrochirus = settings: acute; duration: 96 hours; mortality
Lymnaea stagnalis = settings: chronic/long-term; duration: 41 days
Chrysoperla externa = settings: not reported; mortality
Anas platyrhynchos = settings: short-term; oral; feed; mortality
Aphidius rhopalosiphi = settings: not reported; reproduction
Tagia sp. = settings: acute; mortality
Apis mellifera = settings: acute; duration: 48 hours; oral; unspecified; mortality
Oncorhynchus mykiss = settings: acute; duration: 96 hours; mortality

Molecule `COc1cc(OC)nc(Oc2cccc(Oc3nc(OC)cc(OC)n3)c2C(=O)[O-])n1.[Na+]` [Bispyribac-sodium] has an LD50 (Rattus norvegicus; acute, oral, mortality) of 2640 mg/kg, an NOAEL (Rattus norvegicus; chronic, duration: 2 years, hematological) of 1.1 mg/kg-day and an NOAEC (Rattus norvegicus; reproduction developmental, body weight) of 50 mg/kg-day. The NOAEL (Rattus norvegicus; reproduction developmental, histopathology: nonneoplastic) was 1 mg/kg-day, the NOAEL (Rattus norvegicus; subchronic, duration: 90 days, oral, clinical chemistry) was 7.2 mg/kg-day and the NOEC (Pimephales promelas) was ≥ 10 mg/L. The LC50 (Lepomis macrochirus) was > 95 µg/mL, the NOEC (Lymnaea stagnalis) was ≥ 10 mg/L and the LEL (Chrysoperla externa) was 30 g/ha. The LC50 (Anas platyrhynchos) was > 2060 mg/kg, the LC50 (Coturnix coturnix; acute, oral, diet, mortality) was > 2080 mg/kg and the LD50 (Coturnix coturnix; acute, oral, mortality) was > 2250 mg/kg. For the same molecule, the NOEC (Coturnix coturnix; reproduction developmental, reproduction) was 116 mg/kg-day, the LEL (Aphidius rhopalosiphi) was 3 g/ha and the LC50 (Tagia sp.) was > 957 mg/kg. For the same molecule, the LD50 (Apis mellifera) was > 141 µg/piece and the LC50 (Oncorhynchus mykiss) was > 95 µg/mL.
